Reference: patent US6737383B1, “Herbicidal oxadiazolidines” (priority 1999, dated 2004)

Columns and labels:
sugar beet = assay: Test B pre/postemergence sugar beet; assay type: in vivo, Beta vulgaris
Method in brief: (§1)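 Response is a visual 0-to-10 score relative to untreated plants, where 0 means no effect and 10 means complete control, taken twelve to sixteen days after application. Treatments went onto soil at planting and onto foliage of 1- to 4-leaf plants, using a surfactant-containing non-phytotoxic solvent.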

rape = assay: Test B pre/postemergence rape; assay type: in vivo, Brassica napus
Method in brief: as §1

cocklebur = assay: Test B pre/postemergence cocklebur; assay type: in vivo, Xanthium strumarium
Method in brief: as §1

morningglory = assay: Test B pre/postemergence morningglory; assay type: in vivo, Ipomoea hederacea
Method in brief: as §1

pigweed = assay: Test B pre/postemergence pigweed; assay type: in vivo, Amaranthus retroflexus
Method in brief: as §1

blackgrass = assay: Test B pre/postemergence blackgrass; assay type: in vivo, Alopecurus myosuroides
Method in brief: as §1

bedstraw = assay: Test B pre/postemergence bedstraw; assay type: in vivo, Galium aparine
Method in brief: as §1

surinam grass = assay: Test B pre/postemergence surinam grass; assay type: in vivo, Brachiaria decumbens
Method in brief: as §1

soybean = assay: Test B pre/postemergence soybean; assay type: in vivo, Glycine max
Method in brief: as §1

corn = assay: Test B pre/postemergence corn; assay type: in vivo, Zea mays
Method in brief: as §1

smallflower flatsedge = assay: Test B flood test smallflower flatsedge; assay type: in vivo, Cyperus difformis; settings: Pre-emergence
Method in brief: (§2)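 Plants were grown to the 2-leaf stage before treatment with test chemical, then held in a greenhouse for twelve to sixteen days. Injury was visually rated against untreated controls on a 0–10 scale, where 0 is no effect and 10 is complete control.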

wheat = assay: Test B pre/postemergence wheat; assay type: in vivo, Triticum aestivum
Method in brief: as §1

velvetleaf = assay: Test B pre/postemergence velvetleaf; assay type: in vivo, Abutilon theophrasti
Method in brief: as §1

wild oat = assay: Test B pre/postemergence wild oat; assay type: in vivo, Avena fatua
Method in brief: as §1

giant foxtail = assay: Test B pre/postemergence giant foxtail; assay type: in vivo, Setaria faberii
Method in brief: as §1

rice = assay: Test B flood test rice; assay type: in vivo, Oryza sativa; settings: Pre-emergence
Method in brief: as §2

[1] = Postemergence, Rate 1000 g/ha, scale 0 to 10 (0 no effect, 10 complete control)
[2] = Preemergence, Rate 250 g/ha, scale of 0 to 10 where 0 is no effect and 10 is complete control
[3] = Preemergence, Rate 500 g/ha, scale of 0 to 10 where 0 is no effect and 10 is complete control
[4] = Rate 125 g/ha, Postemergence, scale of 0 to 10 where 0 is no effect and 10 is complete control
[5] = Rate 125 g/ha, Preemergence, scale of 0 to 10 where 0 is no effect and 10 is complete control
[6] = Rate 250 g/ha, Postemergence, scale of 0 to 10 where 0 is no effect and 10 is complete control
[7] = Rate 500 g/ha, Postemergence, scale 0 to 10, 0 no effect, 10 complete control
[8] = Rate 1000 g/ha, Preemergence, scale 0 to 10 (0 no effect, 10 complete control)
[9] = Rate 1000 g/ha, scale 0 to 10 (0 no effect, 10 complete control)
[10] = Rate 125 g/ha, flood test species, scale 0 to 10 where 0 is no effect and 10 is complete control
[11] = Rate 250 g/ha, flood-test species, scale 0 to 10, 0 is no effect, 10 is complete control
[12] = Rate 500 g/ha, flood test species, scale 0 to 10 (0 no effect, 10 complete control)

`C=CCn1c(=O)on(C(=O)N(c2ccc(F)cc2)C(C)C(=O)OCC)c1=O` (stereo not drawn) [Compound 279] was tested. Which “Sugarbeets plant response rating” value (sugar beet; [1]) did it give?
Its value is 4.

And the “Sugarbeets plant response rating” value (sugar beet; [2])?
Its value is 0.

What about the “Plant response rating, Sugarbeets” value (sugar beet; [3]) of the same molecule?
Its value is 0.

And the “Sugarbeets plant response rating” value (sugar beet; [4])?
Its value is 0.

What about the “Sugarbeets plant response rating” value (sugar beet; [5]) of the same molecule?
The value was 0.

And the “Plant response rating, Sugarbeets” value (sugar beet; [6])?
Its value is 0.

And the “Sugarbeets plant response rating” value (sugar beet; [7])?
The value was 0.

And the “Plant response rating, Sugarbeets” value (sugar beet; [8])?
Its value is 0.

And the “Rape plant response rating” value (rape; [1])?
The value was 0.

What about the “Rape plant response rating” value (rape; [2]) of the same molecule?
Its value is 0.

What about the “Plant response rating, Rape” value (rape; [3]) of the same molecule?
The value was 0.

What about the “Rape plant response rating” value (rape; [4]) of the same molecule?
The value was 0.

And the “Rape plant response rating” value (rape; [5])?
The value was 0.

And the “Plant response rating, Rape” value (rape; [6])?
The value was 0.

What about the “Rape plant response rating” value (rape; [7]) of the same molecule?
Its value is 0.

And the “Plant response rating, Rape” value (rape; [8])?
Its value is 0.

And the “Cocklebur plant response rating” value (cocklebur; [1])?
The value was 0.

What about the “Plant response rating, Cocklebur” value (cocklebur; [3]) of the same molecule?
Its value is 0.

And the “Cocklebur plant response rating” value (cocklebur; [4])?
The value was 0.

And the “Plant response rating, Cocklebur” value (cocklebur; [6])?
Its value is 0.

And the “Cocklebur plant response rating” value (cocklebur; [7])?
Its value is 0.

What about the “Plant response rating, Cocklebur” value (cocklebur; [8]) of the same molecule?
Its value is 0.

What about the “Morningglory plant response rating” value (morningglory; [1]) of the same molecule?
Its value is 3.

And the “Morningglory plant response rating” value (morningglory; [2])?
The value was 0.

And the “Plant response rating, Morningglory” value (morningglory; [3])?
Its value is 0.

And the “Morningglory plant response rating” value (morningglory; [4])?
The value was 1.

And the “Morningglory plant response rating” value (morningglory; [5])?
The value was 0.

What about the “Plant response rating, Morningglory” value (morningglory; [6]) of the same molecule?
The value was 2.

What about the “Morningglory plant response rating” value (morningglory; [7]) of the same molecule?
The value was 2.

And the “Plant response rating, Morningglory” value (morningglory; [8])?
The value was 0.

And the “Redroot pigweed plant response rating” value (pigweed; [1])?
The value was 4.

And the “Redroot pigweed plant response rating” value (pigweed; [2])?
Its value is 0.

And the “Plant response rating, Redroot pigweed” value (pigweed; [3])?
The value was 0.

And the “Redroot pigweed plant response rating” value (pigweed; [4])?
Its value is 0.

What about the “Redroot pigweed plant response rating” value (pigweed; [5]) of the same molecule?
Its value is 0.

What about the “Plant response rating, Redroot pigweed” value (pigweed; [6]) of the same molecule?
Its value is 2.

And the “Redroot pigweed plant response rating” value (pigweed; [7])?
The value was 2.

What about the “Plant response rating, Redroot pigweed” value (pigweed; [8]) of the same molecule?
Its value is 0.

What about the “Blackgrass plant response rating” value (blackgrass; [1]) of the same molecule?
Its value is 6.

What about the “Blackgrass plant response rating” value (blackgrass; [2]) of the same molecule?
The value was 0.

What about the “Plant response rating, Blackgrass” value (blackgrass; [3]) of the same molecule?
Its value is 0.

And the “Blackgrass plant response rating” value (blackgrass; [4])?
The value was 0.

What about the “Blackgrass plant response rating” value (blackgrass; [5]) of the same molecule?
Its value is 0.

And the “Plant response rating, Blackgrass” value (blackgrass; [6])?
Its value is 2.

And the “Blackgrass plant response rating” value (blackgrass; [7])?
The value was 4.

What about the “Plant response rating, Blackgrass” value (blackgrass; [8]) of the same molecule?
The value was 0.

And the “Bedstraw plant response rating” value (bedstraw; [1])?
The value was 0.

What about the “Bedstraw plant response rating” value (bedstraw; [2]) of the same molecule?
The value was 0.

And the “Plant response rating, Bedstraw” value (bedstraw; [3])?
Its value is 0.

And the “Bedstraw plant response rating” value (bedstraw; [4])?
Its value is 0.

And the “Bedstraw plant response rating” value (bedstraw; [5])?
Its value is 0.

What about the “Plant response rating, Bedstraw” value (bedstraw; [6]) of the same molecule?
Its value is 0.

What about the “Bedstraw plant response rating” value (bedstraw; [7]) of the same molecule?
Its value is 0.

What about the “Plant response rating, Bedstraw” value (bedstraw; [8]) of the same molecule?
The value was 0.

And the “B. signalgrass plant response rating” value (surinam grass; [1])?
The value was 0.

And the “B. signalgrass plant response rating” value (surinam grass; [2])?
The value was 0.

And the “Plant response rating, B. signalgrass” value (surinam grass; [3])?
The value was 0.

And the “B. signalgrass plant response rating” value (surinam grass; [4])?
The value was 0.

And the “B. signalgrass plant response rating” value (surinam grass; [5])?
Its value is 0.

What about the “Plant response rating, B. signalgrass” value (surinam grass; [6]) of the same molecule?
The value was 0.

And the “B. signalgrass plant response rating” value (surinam grass; [7])?
The value was 0.

What about the “Plant response rating, B. signalgrass” value (surinam grass; [8]) of the same molecule?
The value was 0.

What about the “Soybean plant response rating” value (soybean; [1]) of the same molecule?
Its value is 4.

What about the “Soybean plant response rating” value (soybean; [2]) of the same molecule?
The value was 0.

What about the “Plant response rating, Soybean” value (soybean; [3]) of the same molecule?
Its value is 0.

And the “Soybean plant response rating” value (soybean; [4])?
The value was 0.

What about the “Soybean plant response rating” value (soybean; [5]) of the same molecule?
Its value is 0.

And the “Plant response rating, Soybean” value (soybean; [6])?
Its value is 2.

And the “Soybean plant response rating” value (soybean; [7])?
Its value is 4.

What about the “Plant response rating, Soybean” value (soybean; [8]) of the same molecule?
The value was 0.

And the “Corn plant response rating” value (corn; [1])?
The value was 0.

And the “Corn plant response rating” value (corn; [2])?
The value was 0.

What about the “Plant response rating, Corn” value (corn; [3]) of the same molecule?
Its value is 0.

And the “Corn plant response rating” value (corn; [4])?
The value was 0.

And the “Corn plant response rating” value (corn; [5])?
The value was 0.

What about the “Plant response rating, Corn” value (corn; [6]) of the same molecule?
The value was 0.

What about the “Corn plant response rating” value (corn; [7]) of the same molecule?
The value was 0.

And the “Plant response rating, Corn” value (corn; [8])?
Its value is 0.

What about the “S. Flatsedge plant response rating” value (smallflower flatsedge; [9]) of the same molecule?
The value was 0.

What about the “S. Flatsedge plant response rating” value (smallflower flatsedge; [10]) of the same molecule?
Its value is 0.

What about the “S. Flatsedge plant response rating” value (smallflower flatsedge; [11]) of the same molecule?
The value was 0.

And the “S. Flatsedge plant response rating” value (smallflower flatsedge; [12])?
The value was 0.

What about the “Wheat plant response rating” value (wheat; [1]) of the same molecule?
The value was 1.

What about the “Wheat plant response rating” value (wheat; [2]) of the same molecule?
The value was 0.

And the “Plant response rating, Wheat” value (wheat; [3])?
The value was 0.

And the “Wheat plant response rating” value (wheat; [4])?
The value was 0.

And the “Wheat plant response rating” value (wheat; [5])?
Its value is 0.

And the “Plant response rating, Wheat” value (wheat; [6])?
Its value is 0.

What about the “Wheat plant response rating” value (wheat; [7]) of the same molecule?
Its value is 0.

What about the “Plant response rating, Wheat” value (wheat; [8]) of the same molecule?
Its value is 0.

And the “Velvetleaf plant response rating” value (velvetleaf; [1])?
Its value is 0.

What about the “Velvetleaf plant response rating” value (velvetleaf; [2]) of the same molecule?
The value was 0.

What about the “Plant response rating, Velvetleaf” value (velvetleaf; [3]) of the same molecule?
Its value is 0.

And the “Velvetleaf plant response rating” value (velvetleaf; [4])?
The value was 0.

And the “Velvetleaf plant response rating” value (velvetleaf; [5])?
Its value is 0.

And the “Plant response rating, Velvetleaf” value (velvetleaf; [6])?
The value was 0.

What about the “Velvetleaf plant response rating” value (velvetleaf; [7]) of the same molecule?
The value was 0.

And the “Plant response rating, Velvetleaf” value (velvetleaf; [8])?
Its value is 0.

What about the “Wild oats plant response rating” value (wild oat; [1]) of the same molecule?
Its value is 0.

What about the “Wild oats plant response rating” value (wild oat; [2]) of the same molecule?
The value was 0.

What about the “Plant response rating, Wild oats” value (wild oat; [3]) of the same molecule?
The value was 0.

What about the “Wild oats plant response rating” value (wild oat; [4]) of the same molecule?
Its value is 0.

And the “Plant response rating, Wild oats” value (wild oat; [6])?
The value was 0.

What about the “Wild oats plant response rating” value (wild oat; [7]) of the same molecule?
Its value is 0.

And the “Plant response rating, Wild oats” value (wild oat; [8])?
The value was 0.

And the “Giant foxtail plant response rating” value (giant foxtail; [1])?
The value was 4.

What about the “Giant foxtail plant response rating” value (giant foxtail; [2]) of the same molecule?
Its value is 6.

What about the “Plant response rating, Giant foxtail” value (giant foxtail; [3]) of the same molecule?
Its value is 7.

And the “Giant foxtail plant response rating” value (giant foxtail; [4])?
The value was 0.

What about the “Giant foxtail plant response rating” value (giant foxtail; [5]) of the same molecule?
The value was 3.

And the “Plant response rating, Giant foxtail” value (giant foxtail; [6])?
Its value is 0.

What about the “Giant foxtail plant response rating” value (giant foxtail; [7]) of the same molecule?
The value was 1.

What about the “Plant response rating, Giant foxtail” value (giant foxtail; [8]) of the same molecule?
The value was 7.

And the “Rice plant response rating” value (rice; [9])?
The value was 0.

And the “Rice plant response rating” value (rice; [10])?
The value was 0.

And the “Rice plant response rating” value (rice; [11])?
The value was 0.

What about the “Rice plant response rating” value (rice; [12]) of the same molecule?
Its value is 0.
